Where two headings read alike, the source gives them in different places.
Key:
Kv1.3 = molecular target: T1, Kv1.3 (Homo sapiens, UniProt P22001); assay: Patch clamp assay (QPatch), Kv1.3; format: cell-based; conditions: CHO cells stably expressing human Kv1.3, read-out: Potency IC50, Kv1.3
T1 construct: expressed in transfected cells
Method: (§1) Selectivity of Kv1.3 inhibitor peptides for Kv1.3 over other potassium ion channels (Kv1.1, Kv1.2 and Kv1.6) was determined using patch clamp assay.
(§2) Chinese Hamster Ovary (CHO) cell lines stably expressing exogenous human α-subunits of each potassium ion channel were grown and passaged under standard culture conditions.
(§3) The automated, chip-based planar patch clamp device QPatch® was used to quantitate the ionic currents. All recordings were made in the conventional whole-cell configuration after establishment of gigaohm seals. […] During experiments 0.1% (v/v) BSA was included as a vehicle in all external recording solutions. Currents were elicited from a holding potential of −80 mV using a voltage protocol, which shifted the voltage to 30 mV for 500 ms every 15 s.
(§4) Concentration-response relationships were established by cumulatively applying seven escalating concentrations of test sample to an individual cell with a recording period of 2 min per compound application.
(§5) The efficacy was determined as the mean charge for the last three sweeps at the end of each concentration application period from the cursor positions. The percent inhibition for each test dose application period was calculated as the reduction in mean cursor value (charge) relative to the cursor value measured at the end of the vehicle period and used to calculate the IC50 from the concentration response curve.

Kv1.1 = molecular target: T2, Kv1.1 (Homo sapiens, UniProt Q09470); assay: Patch clamp assay (QPatch), Kv1.1; format: cell-based; conditions: for IC50: QPatch, CHO cells stably expressing human Kv1.1, read-out: Potency IC50, Kv1.1; for Selectivity Kv1.1/Kv1.3: ratio of IC50 Kv1.1/Kv1.3
T2 construct: expressed in transfected cells

[1] = system: T-cell activation in human whole blood; assay: Example 5: IFN-g, IL-2 and IL-17A release in thapsigargin stimulated human whole blood; format: cell-based; conditions: 24 Hr, at least 2 replicate experiments
Text: Human whole blood was used to assess the potency of Kv1.3 inhibitor peptides on T-cell activation as determined by release of the cytokines IFN-g, IL-2 and IL-17A after stimulation with thapsigargin. Addition of thapsigargin activates a signalling cascade resulting in T cell proliferation and cytokine production, in which the Kv1.3 ion channel plays a key role. Activity of Kv1.3 inhibitors in human primary T cells can thus be measured in this experimental system.
Human whole blood was obtained from healthy blood donors and was collected after informed consent using Sodium Heparin blood sampling tubes (Becton, Dickinson and Company (BD), Cat #367876). Test peptides were diluted to 4× final testing concentrations in assay buffer (Dulbecco's Modified Eagle's medium (DMEM) with high glucose and GlutaMAX (3.97 mM L-alanine-L-glutamine) (Gibco Cat #61965026) supplemented with 25 mM HEPES buffer, 1 mM Sodium Pyruvate, 100 units/ml Penicillin, 100 μg/ml Streptomycin and 0.05% Casein from bovine milk (Sigma-Aldrich Cat #C4765)) and 25 μl was added to wells of a 96 well tissue culture plate. Then 50 μl human whole blood was added and incubated for minimum 5 minutes at room temperature to allow compound binding. Then 25 μl of 40 μM thapsigargin diluted in assay buffer was added to all wells of the assay plates to activate the cells, followed by incubation for 24 Hr at 37° C./5% CO2 in a humidified box. The assay plates were centrifuged for 10 min at 300 g at 4° C. and the supernatants were transferred to new plates. The concentrations of IFN-g, IL-2 and IL-17A released to the supernatants were measured using a tri-plex human cytokine detection kit (MSD Human U-Plex IFN-g, IL-2 and IL-17A kit; Meso Scale Discovery Cat #K15067L-2) and all three cytokines were measured using a MSD MESO QuickPlex SQ 120 instrument as described by the manufacturer (Meso Scale Discovery, Rockville, Maryland, USA).
To determine the potency of inhibition for the compounds, the cytokine concentration data were fitted using a three parameter logistic dose response model based on the formula Y=Bottom+(Top−Bottom)/(1+IC50/X), where Y is measured cytokine concentrations, X is compound concentrations and Top, bottom and IC50 are parameters fitted using the software Graphpad Prism version 5.04. The IC50 value calculated from the concentration response curve represents the compound concentration that gives an inhibition response halfway between the basal (Bottom) response and the maximal (Top) response.
All values are derived from at least 2 replicate experiments. All of the tested Kv1.3 blockers were able to inhibit cytokine production from human T cells present in human whole blood that was stimulated with thapsigargin.

Kv1.6 = molecular target: T3, Kv1.6 (Homo sapiens, UniProt P17658); assay: Patch clamp assay (QPatch), Kv1.6; format: cell-based; conditions: for IC50: QPatch, CHO cells stably expressing human Kv1.6, read-out: Potency IC50, Kv1.6; for Selectivity Kv1.6/Kv1.3: ratio of IC50 Kv1.6/Kv1.3
T3 construct: expressed in transfected cells
Method: as §1, §2, §3, §4, §5

Kv1.2 = molecular target: T4, Kv1.2 (Homo sapiens, UniProt P16389); assay: Patch clamp assay (QPatch), Kv1.2; format: cell-based; conditions: for IC50: QPatch, CHO cells stably expressing human Kv1.2, read-out: Potency IC50, Kv1.2; for Selectivity Kv1.2/Kv1.3: ratio of IC50 Kv1.2/Kv1.3
T4 construct: expressed in transfected cells
Method: as §1, §2, §3, §4, §5

[2] = system: T-cell activation in rat whole blood; assay: Example 4: IL-17A release in thapsigargin stimulated rat whole blood; format: cell-based, rat (Lewis or Sprague-Dawley); conditions: 24 Hr, at least 2 replicates, unit inferred, read-out: IC50 (inhibition of IL-17A release)
Method in brief: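 Heparinised whole blood from naïve Lewis or Sprague-Dawley rats preincubated ≥5 min at RT with peptide, then stimulated with thapsigargin (40 μM stock added as one quarter of well volume) for 24 h at 37 °C. Supernatant IL-17A measured by ELISA; IC50 from curves normalised to stimulated and unstimulated controls, ≥2 replicates.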

[3] = system: human peripheral blood mononuclear cells (PBMCs); assay: Example 3a: IL-2 release from anti-CD3 stimulated human PBMCs; format: cell-based; conditions: for IC50: human PBMCs, 5 donors, anti-CD3 0.5 μg/mL, geometric mean, at least 4 replicates, read-out: anti-CD3 PBMC/ IL-2 IC50
Method: Human peripheral blood mononuclear cells (PBMCs) were used to assess the effects of Kv1.3 inhibitor peptides on T-cell activation as determined by IL-2 (cytokine) release after stimulation with anti-CD3.
Human PBMCs were obtained from Precision for Medicine (Frederick, MD). Cells from 5 donors were used. Plate-bound anti-CD3 was used to stimulate bulk T cells in the PBMC preparations. Briefly, 96-well plates were coated with anti-CD3 antibody for 2 hrs at 37° C., using 50 μL of a 0.5 μg/mL anti-CD3 solution diluted in 1×PBS. Thereafter the plates were washed twice.
Cyclosporin A (1 ug/ml) and Vm24 peptide (100 nM) were used as positive controls. Finally, 1×10^5 PBMCs were added to each well in a volume of 100 μL, giving a final volume of 200 μL per well. The plates were incubated for 20-24 hours in a 37° C./5% CO2 incubator. After centrifugation of the plates, 25 μl supernatant was transferred to IL-2 detection plates (MSD Human IL-2 Tissue Culture Kit, cat #K151AHB-2) and IL-2 was measures as described by the manufacturer (Meso Scale Discovery, Rockville, Maryland, USA).
All values derive from at least 4 replicates.

[4] = Example 6: Pharmacokinetic characterisation after s.c. administration; format: in vivo, rat (Sprague Dawley or Wistar); conditions: rat, 70 nmol/kg; for AUCINF / Cmax: plasma; for T1/2: plasma terminal elimination half-life
Method: Sprague Dawley or Wistar rats (males with a body weight of approximately 250-350 g) were given a single subcutaneous (s.c.) injection of each peptide to be tested.
Following s.c. administration of the selected peptides (dose 70 nmol/kg, dosing volume either 2 or 5 mL/kg), blood samples were drawn at 15 min, 30 min, 45 min, 60 min, 90 min, 2 h, 3 h, 4 h post-dose. At each sampling time point, samples from the rats were drawn by sublingual bleeding or by tail cut. After last sampling the rats were sacrificed by O2/CO2 anaesthesia. The dosing vehicle was 10 mM phosphate, 0.8% NaCl, 0.05% Polysorbate 20 (pH 6.0).
Plasma samples were analyzed after solid phase extraction (SPE) by liquid chromatography mass spectrometry (LC-MS/MS). Mean plasma concentrations were used for calculation of the pharmacokinetic parameters using the non-compartmental approach in Phoenix WinNonlin 6.4 or a later version. […]. AUCinf is the area under the plasma concentration−time curve extrapolated to infinity (AUCinf=AUClast+Clast/λz, where Clast is the last observed plasma concentration). Cmax is the maximum observed concentration, occurring at Tmax.

[5] = system: human peripheral blood mononuclear cells (PBMCs); assay: Example 3b: IL-2 release from anti-CD3 stimulated human PBMCs; format: cell-based; conditions: 5 donors, anti-CD3 1 μg/ml, geometric mean, at least 6 replicates, read-out: anti-CD3 PBMC/IL-2 IC50
Method: Human peripheral blood mononuclear cells (PBMCs) were used to assess the effects of Kv1.3 inhibitor peptides on T-cell activation as determined by IL-2 release after stimulation with anti-CD3.
Human PBMCs were obtained from Precision for Medicine (Frederick, MD). Cells from 5 donors were used. Plate-bound anti-CD3 was used to stimulate bulk T cells in the PBMC preparations. Briefly, 96-well plates were coated with anti-CD3 antibody for app. 16 hours at 5° C., using 50 μl of a 1 μg/ml anti-CD3 solution diluted in PBS. Thereafter the plates were washed twice.
Peptides were subsequently diluted in medium (RPMI 1640 with Glutamax-I containing, 10% v/v Fetal Bovine Serum, 1% v/v penicillin-streptomycin Solution) and added in a volume of 50 μl. The peptides indicated in Table 4b were used at concentrations ranging from 0.3 pM to 1000 nM (half log dilutions, starting concentrations varying). Cyclosporin A (1 μg/ml) and Vm24 peptide (100 nM) were used as positive controls.
Finally, 50,000 PBMCs in the same medium were added to each well in a volume of 50 μl, giving a final volume of 100 μl per well. The plates were incubated for 20-24 hours in a 370C/5% CO2 incubator. After centrifugation of the plates, 25 μl supernatant was transferred to IL-2 detection plates (MSD Human IL-2 Tissue Culture Kit, cat #K151AHB-2) and IL-2 was measures as described by the manufacturer (Meso Scale Discovery, Rockville, Maryland, USA).
All values derive from at least 6 replicates.

T2 sequence (Q09470 whole entry): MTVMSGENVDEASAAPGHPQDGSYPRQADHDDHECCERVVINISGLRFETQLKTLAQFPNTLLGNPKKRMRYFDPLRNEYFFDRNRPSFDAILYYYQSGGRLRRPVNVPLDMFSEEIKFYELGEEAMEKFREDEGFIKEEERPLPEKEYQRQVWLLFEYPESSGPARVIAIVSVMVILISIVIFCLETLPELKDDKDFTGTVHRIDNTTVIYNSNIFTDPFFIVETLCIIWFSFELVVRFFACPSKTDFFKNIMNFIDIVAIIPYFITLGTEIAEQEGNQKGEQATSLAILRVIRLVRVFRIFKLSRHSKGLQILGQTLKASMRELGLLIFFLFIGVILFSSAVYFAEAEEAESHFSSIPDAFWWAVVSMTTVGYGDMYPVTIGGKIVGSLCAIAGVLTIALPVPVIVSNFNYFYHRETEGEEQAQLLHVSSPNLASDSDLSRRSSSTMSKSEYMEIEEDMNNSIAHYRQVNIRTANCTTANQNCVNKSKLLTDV
T1 sequence (P22001 whole entry): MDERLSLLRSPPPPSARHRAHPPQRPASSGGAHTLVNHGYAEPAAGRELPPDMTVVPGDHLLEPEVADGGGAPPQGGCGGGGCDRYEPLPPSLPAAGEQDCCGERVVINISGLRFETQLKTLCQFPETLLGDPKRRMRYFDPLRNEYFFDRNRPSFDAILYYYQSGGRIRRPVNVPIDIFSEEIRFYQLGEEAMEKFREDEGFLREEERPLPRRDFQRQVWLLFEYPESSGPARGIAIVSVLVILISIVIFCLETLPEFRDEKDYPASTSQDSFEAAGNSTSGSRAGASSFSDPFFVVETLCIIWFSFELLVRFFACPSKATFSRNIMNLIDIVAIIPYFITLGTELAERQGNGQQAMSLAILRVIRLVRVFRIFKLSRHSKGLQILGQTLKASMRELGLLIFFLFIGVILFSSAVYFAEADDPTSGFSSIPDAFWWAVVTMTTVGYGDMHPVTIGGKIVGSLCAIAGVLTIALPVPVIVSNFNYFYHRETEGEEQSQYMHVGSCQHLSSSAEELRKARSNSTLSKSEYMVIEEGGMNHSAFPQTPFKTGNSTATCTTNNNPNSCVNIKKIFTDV
T4 sequence (P16389 whole entry): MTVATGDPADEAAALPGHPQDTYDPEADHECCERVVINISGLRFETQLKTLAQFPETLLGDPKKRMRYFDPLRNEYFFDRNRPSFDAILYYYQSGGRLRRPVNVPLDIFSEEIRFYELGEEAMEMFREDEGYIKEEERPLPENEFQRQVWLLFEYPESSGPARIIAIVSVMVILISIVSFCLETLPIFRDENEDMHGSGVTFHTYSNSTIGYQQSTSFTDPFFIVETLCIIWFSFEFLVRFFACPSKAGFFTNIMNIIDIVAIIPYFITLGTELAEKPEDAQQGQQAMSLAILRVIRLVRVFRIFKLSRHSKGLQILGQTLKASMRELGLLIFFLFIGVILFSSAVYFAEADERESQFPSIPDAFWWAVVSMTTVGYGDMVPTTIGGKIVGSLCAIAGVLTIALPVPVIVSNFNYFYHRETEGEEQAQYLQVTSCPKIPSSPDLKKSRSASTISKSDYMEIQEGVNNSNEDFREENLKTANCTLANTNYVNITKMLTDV
T3 sequence (P17658 whole entry): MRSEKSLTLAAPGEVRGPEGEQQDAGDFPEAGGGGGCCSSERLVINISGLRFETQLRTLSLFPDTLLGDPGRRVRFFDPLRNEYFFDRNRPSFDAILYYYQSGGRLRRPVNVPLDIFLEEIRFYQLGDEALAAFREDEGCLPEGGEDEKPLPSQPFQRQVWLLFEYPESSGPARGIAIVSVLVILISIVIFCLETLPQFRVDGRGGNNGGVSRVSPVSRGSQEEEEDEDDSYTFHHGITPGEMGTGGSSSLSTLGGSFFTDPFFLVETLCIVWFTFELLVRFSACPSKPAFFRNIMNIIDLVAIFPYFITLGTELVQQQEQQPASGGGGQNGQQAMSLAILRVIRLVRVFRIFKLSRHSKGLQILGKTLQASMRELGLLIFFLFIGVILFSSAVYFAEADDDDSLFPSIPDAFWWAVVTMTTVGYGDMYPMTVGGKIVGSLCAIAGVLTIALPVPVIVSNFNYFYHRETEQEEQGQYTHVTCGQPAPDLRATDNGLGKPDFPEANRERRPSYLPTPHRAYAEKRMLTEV

Substance | IC50 (Kv1.3) [nM] | IC50 (Kv1.1) [nM] | Selectivity Kv1.1/Kv1.3 (Kv1.1) | IC50 ([1]; read-out: Average IC50, IFN-g) [nM] | IC50 ([1]; read-out: Average IC50, IL-2) [nM] | IC50 ([1]; read-out: Average IC50, IL-17A) [nM] | IC50 (Kv1.6) [nM] | Selectivity Kv1.6/Kv1.3 (Kv1.6) | IC50 (Kv1.2) [nM] | Selectivity Kv1.2/Kv1.3 (Kv1.2) | IC50 [2] [nM] | comparison of IC50 (IL-2 secretion) with ShK186 / Moka1 ([3]; in words) | AUCINF [4] [µM·h] | Cmax [4] [nM] | T1/2 [4] [min] | IC50 [3] [nM] | IC50 [5] [nM]
H-C(1)SASVEC(2)KQKC(3)LKAIGSIFGKC(1)[Nle]NKKC(2)KC(3)YPR-NH2 [Peptide 108] | 0.43 | > 3000 | >7000 | 0.081 | 0.12 | 0.23 | > 3000 | >7000 | > 3000 | >7000 | 1.6 | – | – | – | – | – | –
H-INVKCSLPQQCIKPCKDAGMRFGKCMNKKCRCYS-OH [Moka1, reference compound] | – | – | >300 | – | – | – | – | >300 | – | 31 | – | less potent in inhibiting IL-2 secretion | – | – | – | – | –
H-NMDMRC(1)SASVEC(2)KQKC(3)LAAIGSIFGKC(1)MNKKC(2)KC(3)YPR-NH2 [Peptide 53] | 0.11 | > 3000 | >27500 | 0.11 | 0.083 | 0.26 | > 3000 | >27500 | 88 | 803 | 0.69 | – | 0.0485 | 31.2 | 53.4 | – | –
H-NMDMRC(1)SASVEC(2)KQKC(3)LDAIGSIFGKC(1)MNKKC(2)KC(3)YPR-NH2 [Peptide 21] | 0.21 | > 3000 | >14300 | – | – | – | 2530 | 12045 | 99 | 471 | 1.2 | – | – | – | – | 0.1 | –
H-NMDMRC(1)SASVEC(2)KQKC(3)LKAIGSIFGKC(1)MNKKC(2)KC(3)YPRRRTA-NH2 [Peptide 24] | 0.15 | 626 | 4280 | – | – | – | 215 | 1472 | 28 | 191 | 0.57 | – | – | – | – | – | 0.06
H-NMDMRC(1)SASVEC(2)KQKC(3)LKAIGSIFGKC(1)[Nle]NKKC(2)KC(3)YPR-NH2 [Peptide 17] | 0.24 | > 3000 | >12600 | – | – | – | 2460 | 10360 | 133 | 561 | – | – | – | – | – | 0.05 | –
H-NMDMRC(1)SASVEC(2)KQKC(3)LKAIGSRFGKC(1)MNKKC(2)KC(3)YPR-NH2 [Peptide 36] | 0.2 | > 3000 | >15000 | – | – | – | 192 | 963 | 18 | 88 | 2.5 | – | – | – | – | 0.1 | –
H-NMDMRC(1)SASVEC(2)KVKC(3)LKAIGSIFGKC(1)MNKKC(2)KC(3)YPR-NH2 [Peptide 18] | 0.42 | > 3000 | >7200 | – | – | – | 912 | 2182 | 66 | 159 | 0.88 | – | – | – | – | 0.4 | –
H-N[Nle]D[Nle]RC(1)SASVEC(2)KQSC(3)LKAIGSIFGKC(1)[Nle]NKKC(2)KC(3)YPR-NH2 [Peptide 49] | 0.37 | > 3000 | >8200 | – | – | – | > 3000 | >8200 | > 3000 | >8200 | 0.63 | – | – | – | – | – | 0.07
H-PIE[Nle]RC(1)SASVEC(2)KQKC(3)LAAIGSIFGKC(1)[Nle]NKKC(2)KC(3)YPR-OH [Peptide 105] | 0.35 | > 3000 | >8600 | – | – | – | > 3000 | >8600 | 1970 | 5630 | 0.61 | – | 0.1318 | 58.6 | 54.6 | – | –
H-P[Nle]E[Nle]RC(1)SASVEC(2)AQKC(3)LAAIGSIFGKC(1)[Nle]NKKC(2)KC(3)YPR-OH [Peptide 107] | 0.55 | > 3000 | >5500 | – | – | – | > 3000 | >5500 | > 3000 | 5500 | 1.2 | – | 0.1766 | 68.4 | 81.6 | – | –
